# Patent US7098307B2, “Neo-tryptophan” (Mayo Foundation for Medical Education and Research, priority 1998, dated 2006)
# Like-named read-outs stand apart in the source and are kept apart here. Square brackets hold non-standard residues; d marks the D form. Peptide text beside a SMILES is read from it. Ala(indol-4-yl) = N[C@@H](Cc1cccc2[nH]ccc12)C(=O)O; NMeR = CN[C@@H](CCCNC(=N)N)C(=O)O; Tle = CC(C)(C)[C@H](N)C(=O)O
# What was measured:
# [1] = Body temperature (hypothermia) in rats; settings: for Peak BT change / time of Peak BT change: rats; for induction of hypothermia: intraperitoneal administration (NT64L 1 mg/kg)
# rat NTR1 [2] = biological target: T1, rat NTR1 (Rattus norvegicus, UniProt P20789); test: PI turnover ([3H]IP1) in intact CHO-K1 cells, rat NTR1; type: cell-based
# T1 construct: expressed in transfected cells; host or cells: CHO-K1
# Experimental: (§1) To measure PI turnover, intact CHO-K1 cells were harvested at about 80% confluency. Cells were detached from the petri plates by removal of culture medium followed by incubation of the cellular monolayer for 20 minutes at 37° C. with gentle shaking in a modified Puck's D1 solution containing 2 mM EGTA. […] Briefly, intact CHO cells were prelabeled with D-myo-[^3H]inositol (18.3 Ci/mmol) in the presence of lithium chloride (final concentration, 10 mM). […] For the experiments described herein, the stimulation time was 30 minutes, and the number of CHO cells per assay tube was 1.5×10^5.
# human NTR1 [3] = biological target: T2, human NTR1 (Homo sapiens, UniProt P30989); test: PI turnover ([3H]IP1) in intact CHO-K1 cells, human NTR1; type: cell-based
# T2 construct: expressed in transfected cells; host or cells: CHO-K1
# Experimental: as §1
# [4] = Degradation in rat intestinal preparation; type: in vitro ADME; settings: pH 7.4, 37° C., read-out: half-time, Rat Intestinal Preparation (converted)
# Experimental: For intestinal preparations, rats were sacrificed by decapitation, and the small intestines removed. The tissue was washed with ice-cold PBS (10 mM, pH 7.4). About […] of intestinal tissue was added to about 10 mL of PBS and homogenized using a Brinkman polytron homogenizer (setting 6). After homogenization, 10 mL of PBS was added to 10 mL of the intestinal homogenate. […] The supernatant was removed and stored at −20° C. until testing. Immediately before incubation with the polypeptide, the intestinal preparation was filtered through a 0.2 μm filter. Testing procedures were similar to those for the plasma tests.
# (§2) For the degradation studies, data were plotted in linear form as a semi-log plot with SigmaPlot for Windows Version 4.00. Linear regression on these plots provided the parameters used to calculate the half-time (t1/2) for degradation of each polypeptide. The correlation coefficient (R) for the linear regression was taken as a measure of the goodness-of-fit.
# [5] = Degradation in human plasma (HPLC peak area); type: in vitro ADME; settings: 25% plasma, 37° C., 0.5 mg/mL polypeptide; for half-life at 0.5 mg/mL: human, read-out: half-time, Plasma Human (converted)
# Source text: as §2
# human NTR1 [6] = biological target: T2, human NTR1; test: Competition binding with [3H]NT, membranes of CHO-K1 cells transfected with human NTR1
# Experimental: (§3) CHO-K1 cells were stably transfected with nucleic acid encoding either the human NTR1 or the rat NTR1, and cultured in 150 mm petri plates with 35 mL of Dulbecco-modified Eagle's medium containing 100 μM minimal essential medium nonessential amino acids (GIBCO) supplemented with 5% (v/v) FetalClone II bovine serum product (Hyclone Labs, Logan, Utah). CHO cells (subculture 9–19) were harvested at confluency. Briefly, the medium from each plate was removed by aspiration, and the cells washed with 6 mL of 50 mM Tris-HCl (pH 7.4) and resuspended in 5–10 mL of Tris-HCl by scraping the cells with a rubber spatula. The resuspended cells were placed into a centrifuge tube and collected by centrifugation at 300× g for five minutes at 4° C. in a GPR centrifuge (Beckman Instruments, Fullerton, Calif.). The cellular pellet (in 50 mM Tris-HCl, 1 mM EDTA, pH 7.4) was stored at […] until radioligand binding was performed.
# (§4) The supernatant was decanted and discarded, and the cellular pellet was resuspended in 2 mL of Tris-HCl, 1 mM EDTA (pH 7.4) followed by homogenization with a Brinkmann Polytron at setting 6 for ten seconds. Centrifugation was repeated as above and the supernatant was decanted and discarded. The resulting final cellular pellet was resuspended in 50 mM Tris-HCl, lmM EDTA, 0.1% bovine serum albumin, and 0.2 mM bacitracin.
# (§5) Incubation was at 20° C. for 30 minutes. Each reaction was terminated by addition of cold 0.9% NaCl (5×1.5 mL) followed by rapid filtration through a GF/B filter strip that had been pretreated with 0.2% polyethylenimine.
# [7] = Hot plate test (antinociception, % MPE) in rats; settings: for induction of antinociception (hot plate): intraperitoneal administration (NT64L 1 mg/kg); for ED50 % MPE: intraperitoneal
# 5HT2A receptor = 5HT2A receptor (Homo sapiens, UniProt P28223); test: Competitive binding with [3H]ketanserin, human brain tissue; settings: for competition with labeled ketanserin for binding at the 5HT2A receptor: human brain tissue
# adrenergic α1 receptors = test: Radiolabeled competitive binding, human brain tissue, adrenergic α1
# rat NTR1 [8] = biological target: T1, rat NTR1; test: Competition binding with [3H]NT, membranes of CHO-K1 cells transfected with rat NTR1
# Experimental: as §3, §4, §5
# [9] = Degradation in rat plasma (HPLC peak area); type: in vitro ADME; settings: 25% plasma, 37° C., 0.5 mg/mL polypeptide, read-out: half-time, Plasma Rat (converted)
# Source text: as §2
# dopamine D2 receptors = biological target: T3, dopamine D2 receptors (Homo sapiens, UniProt P14416); test: Radiolabeled competitive binding, human brain tissue, dopamine
# T3 construct: Human brain tissue; from tissue; host or cells: human brain tissue
# Muscarinic = test: Radiolabeled competitive binding, human brain tissue, muscarinic
# α2-adrenergic receptors = test: Radiolabeled competitive binding, human brain tissue, adrenergic α2
Compound,Peak BT change ([1]; 1 mg/kg intraperitoneal),time of Peak BT change ([1]; 1 mg/kg intraperitoneal),induction of hypothermia [1],"ED50 BT ([1]; intraperitoneal, @ 30 min)",EC50 (rat NTR1 [2]),EC50 (human NTR1 [3]),half-life [4],half-life at 0.5 mg/mL [5],"time of Peak % MPE ([7]; 1 mg/kg intraperitoneal, rats)",induction of antinociception (hot plate) [7],ED50 % MPE ([7]; @ 30 min),competition with labeled ketanserin for binding at the 5HT2A receptor (5HT2A receptor),Kd (rat NTR1 [8]),Kd (human NTR1 [6]),half-life at 0.5 mg/mL [9],"Peak % MPE ([7]; 1 mg/kg intraperitoneal, rats)",Kd (dopamine D2 receptors),also measured
"CN[C@@H](CCCNC(=N)N)C(=O)N[C@@H](CCCCN)C(=O)N1CCC[C@H]1C(=O)N[C@@H](Cc1c[nH]c2ccccc12)C(=O)N[C@H](C(=O)N[C@@H](CC(C)C)C(=O)O)C(C)(C)C [Eisai, reference compound] (H-[NMeR]KPW[Tle]L-OH; N-terminus and C-terminus assumed)",−2.9 @ ° C.,60 min,did induce,0.26 mg/kg,0.0031 µM,0.3 µM,22 h,460 h,90 min,did induce,0.42 mg/kg,–,–,–,–,–,–,"ED50 BT ([1]; intraperitoneal, @ 90 min): 0.12 mg/kg; peak reduction in body temperature ([1]; intraperitoneal, dose not restated): about 3 °C; weaker at the human NT receptor than at the rat NT receptor, PI turnover (human NTR1 [3]): ~100 fold; weaker at the human NT receptor compared to binding affinity at the rat receptor (human NTR1 [6]; binding): ~20 fold; ED50 % MPE ([7]; @ 90 min): 0.08 mg/kg"
CC(C)C[C@H](NC(=O)[C@@H](NC(=O)[C@H](Cc1cccc2[nH]ccc12)NC(=O)[C@@H]1CCCN1C(=O)[C@H](CCCNC(=N)N)NC(=O)[C@H](N)CCCCN)C(C)(C)C)C(=O)O [NT66L] (H-[dK]RP[Ala(indol-4-yl)][Tle]L-OH; N-terminus and C-terminus assumed),−3.0 @ ° C.,240 min,did induce,0.45 mg/kg,0.0019 ± 0.0004 µM,0.01 µM,–,170 h,120 min,did induce,0.04 mg/kg,found to compete,0.00085 ± 9e-05 µM,0.0037 ± 0.0004 µM,350 h,100% @,56 µM,"Kd (5HT2A receptor): 8.7 µM; Kd (adrenergic α1 receptors; read-out: Kd adrenergic α1): 38 µM; Peak BT change ([1]; 5 mg/kg intraperitoneal): −5.0 @ ° C.; time of Peak BT change ([1]; 5 mg/kg intraperitoneal): 120 min; ED50 BT ([1]; intraperitoneal, @ 60 min): 0.18 mg/kg; peak reduction in body temperature (change) ([1]; oral, 20 mg/kg): −1.4 °C; time of peak reduction in body temperature ([1]; oral, 20 mg/kg): 30 min; Peak % MPE ([7]; 5 mg/kg intraperitoneal, rats): 100% @; time of Peak % MPE ([7]; 5 mg/kg intraperitoneal, rats): 330 min; ED50 % MPE ([7]; @ 60 min): 0.02 mg/kg; peak % MPE value ([7]; oral, 20 mg/kg): 40%; time of Peak % MPE ([7]; oral, 20 mg/kg): 60 min"
CC[C@H](C)[C@H](NC(=O)[C@H](Cc1cccc2[nH]ccc12)NC(=O)[C@@H]1CCCN1C(=O)[C@H](CCCNC(=N)N)NC(=O)[C@H](N)CCCCN)C(=O)N[C@@H](CC(C)C)C(=O)O [NT67L] (H-[dK]RP[Ala(indol-4-yl)]IL-OH; N-terminus and C-terminus assumed),−1.8 @ ° C.,120 min,did induce,–,–,0.00083 µM,0.77 h,96 h,90 min,did induce,–,found to compete,0.00021 ± 2e-05 µM,0.00061 ± 6e-05 µM,130 h,70% @,> 100 µM,"Kd (Muscarinic): > 100 µM; Kd (adrenergic α1 receptors; read-out: Kd adrenergic α1 receptors): 6.9 µM; half-time, Plasma Human [5]: about 96 hours; reduction in binding affinity compared to NT64L (human NTR1 [6]; NT receptor binding): about six fold lower; Kd (α2-adrenergic receptors): > 100 µM"
